From US20080268044A1, “Novel Process and Formulations” (Glaxo Group Limited, priority 2005, published 2008)

Assay: Comparison of salt forms (solubility, stability)
Format: physicochemical

stability of salt forms (comparison): less stable than the other salt forms
SMILES: Cc1cc(F)ccc1-c1nc(NC(CO)CO)nc2c1ccc(=O)n2-c1c(F)cccc1F [sulphate, 8-(2,6-difluorophenyl)-4-(4-fluoro-2-methylphenyl)-2-{[2-hydroxy-1-(hydroxymethyl)ethyl]amino}pyrido[2,3-d]pyrimidin-7(8H)-one]
